Results as given in PubChem BioAssay AID1963839 (Molecular Pharmacology Branch, DTP, NCI, 2024).
pIC50: −log10 of the molar value.

System: 817829-284-R-J1-PDC complex spheroid viability
Test: Anticancer human tumor 817829-284-R-J1-PDC patient-derived colon adenocarcinoma cell line growth inhibition [POLQ]
Conditions: for pIC50: curve of first compound; for viability, T/C: stronger effect = lower value
Outline: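 Three-cell-type spheroids modelling solid tumor plus stroma served as the readout system; POL inhibitors were tested individually and in combination, concentration ranges set by clinical Cmax where known.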
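Note: spheroids exposed to compounds for 7 days.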
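Throughout, for viability, T/C: 100% = DMSO vehicle-treated spheroids.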

`CC(=O)O[C@H]1C(=O)[C@@]2(C)[C@H]([C@H](OC(=O)c3ccccc3)[C@]3(O)C[C@H](OC(=O)[C@H](O)[C@@H](NC(=O)c4ccccc4)c4ccccc4)C(C)=C1C3(C)C)[C@]1(OC(C)=O)CO[C@@H]1C[C@@H]2O` + COC1C(OC(N)=O)C(O)C(Oc2ccc3c(O)c(NC(=O)c4ccc(O)c(CC=C(C)C)c4)c(=O)oc3c2C)OC1(C)C gave a pIC50 (second compound 0.0316 µM) greater than 8.02, a pIC50 (second compound 0.1 µM) greater than 8.02 and a pIC50 (second compound 0.316 µM) greater than 8.02. It also gave a pIC50 (second compound 1 µM) greater than 8.02, a pIC50 (second compound 3.16 µM) greater than 8.02 and a pIC50 (second compound 10 µM) greater than 8.02. It also gave a viability, T/C (second compound 0.0316 µM, first compound 0.00949 µM) of 6.3%, a viability, T/C (second compound 0.0316 µM, first compound 0.03 µM) of 5.64% and a viability, T/C (second compound 0.0316 µM, first compound 0.0949 µM) of 4.85%. It also gave a viability, T/C (second compound 0.0316 µM, first compound 0.3 µM) of 4.95%, a viability, T/C (second compound 0.0316 µM, first compound 0.949 µM) of 4.91% and a viability, T/C (second compound 0.0316 µM, first compound 3 µM) of 5.21%. It also gave a viability, T/C (second compound 0.1 µM, first compound 0.00949 µM) of 5.46%, a viability, T/C (second compound 0.1 µM, first compound 0.03 µM) of 4.45% and a viability, T/C (second compound 0.1 µM, first compound 0.0949 µM) of 4.97%. For the same molecule, the viability, T/C (second compound 0.1 µM, first compound 0.3 µM) was 5.08%, the viability, T/C (second compound 0.1 µM, first compound 0.949 µM) was 4.85% and the viability, T/C (second compound 0.1 µM, first compound 3 µM) was 5.2%. The viability, T/C (second compound 0.316 µM, first compound 0.00949 µM) was 5.79%, the viability, T/C (second compound 0.316 µM, first compound 0.03 µM) was 5.7% and the viability, T/C (second compound 0.316 µM, first compound 0.0949 µM) was 5.32%. It also gave a viability, T/C (second compound 0.316 µM, first compound 0.3 µM) of 4.7%, a viability, T/C (second compound 0.316 µM, first compound 0.949 µM) of 4.56% and a viability, T/C (second compound 0.316 µM, first compound 3 µM) of 4.8%. The viability, T/C (second compound 1 µM, first compound 0.00949 µM) was 5.74%, the viability, T/C (second compound 1 µM, first compound 0.03 µM) was 5.47% and the viability, T/C (second compound 1 µM, first compound 0.0949 µM) was 5.82%. It also gave a viability, T/C (second compound 1 µM, first compound 0.3 µM) of 4.18%, a viability, T/C (second compound 1 µM, first compound 0.949 µM) of 4.64% and a viability, T/C (second compound 1 µM, first compound 3 µM) of 5.33%. For the same molecule, the viability, T/C (second compound 3.16 µM, first compound 0.00949 µM) was 5.62%, the viability, T/C (second compound 3.16 µM, first compound 0.03 µM) was 5.09% and the viability, T/C (second compound 3.16 µM, first compound 0.0949 µM) was 4.79%. It also gave a viability, T/C (second compound 3.16 µM, first compound 0.3 µM) of 4.48%, a viability, T/C (second compound 3.16 µM, first compound 0.949 µM) of 4.83% and a viability, T/C (second compound 3.16 µM, first compound 3 µM) of 4.67%. It also gave a viability, T/C (second compound 10 µM, first compound 0.00949 µM) of 5.28%, a viability, T/C (second compound 10 µM, first compound 0.03 µM) of 5.23% and a viability, T/C (second compound 10 µM, first compound 0.0949 µM) of 5.99%. For the same molecule, the viability, T/C (second compound 10 µM, first compound 0.3 µM) was 5.05%, the viability, T/C (second compound 10 µM, first compound 0.949 µM) was 4.95% and the viability, T/C (second compound 10 µM, first compound 3 µM) was 5.41%.
With `CC[C@@]1(O)C(=O)OCc2c1cc1n(c2=O)Cc2cc3c(CN(C)C)c(O)ccc3nc2-1` + COC1C(OC(N)=O)C(O)C(Oc2ccc3c(O)c(NC(=O)c4ccc(O)c(CC=C(C)C)c4)c(=O)oc3c2C)OC1(C)C the pIC50 (second compound 0.0316 µM) was 8.31, the pIC50 (second compound 0.1 µM) was 8.21 and the pIC50 (second compound 0.316 µM) was 8.25. For the same molecule, the pIC50 (second compound 1 µM) was 8.12, the pIC50 (second compound 3.16 µM) was 8.10 and the pIC50 (second compound 10 µM) was 8.23. The viability, T/C (second compound 0.0316 µM, first compound 0.000316 µM) was 80.6%, the viability, T/C (second compound 0.0316 µM, first compound 0.001 µM) was 87.4% and the viability, T/C (second compound 0.0316 µM, first compound 0.00316 µM) was 58.6%. It also gave a viability, T/C (second compound 0.0316 µM, first compound 0.01 µM) of 32.5%, a viability, T/C (second compound 0.0316 µM, first compound 0.0316 µM) of 21.7% and a viability, T/C (second compound 0.0316 µM, first compound 0.1 µM) of 16.1%. It also gave a viability, T/C (second compound 0.1 µM, first compound 0.000316 µM) of 69.7%, a viability, T/C (second compound 0.1 µM, first compound 0.001 µM) of 81.7% and a viability, T/C (second compound 0.1 µM, first compound 0.00316 µM) of 76.2%. It also gave a viability, T/C (second compound 0.1 µM, first compound 0.01 µM) of 30.9%, a viability, T/C (second compound 0.1 µM, first compound 0.0316 µM) of 21.4% and a viability, T/C (second compound 0.1 µM, first compound 0.1 µM) of 15.7%. For the same molecule, the viability, T/C (second compound 0.316 µM, first compound 0.000316 µM) was 74.4%, the viability, T/C (second compound 0.316 µM, first compound 0.001 µM) was 78.8% and the viability, T/C (second compound 0.316 µM, first compound 0.00316 µM) was 57.8%. For the same molecule, the viability, T/C (second compound 0.316 µM, first compound 0.01 µM) was 40.8%, the viability, T/C (second compound 0.316 µM, first compound 0.0316 µM) was 20.1% and the viability, T/C (second compound 0.316 µM, first compound 0.1 µM) was 17.3%. The viability, T/C (second compound 1 µM, first compound 0.000316 µM) was 83.2%, the viability, T/C (second compound 1 µM, first compound 0.001 µM) was 106% and the viability, T/C (second compound 1 µM, first compound 0.00316 µM) was 84.1%. For the same molecule, the viability, T/C (second compound 1 µM, first compound 0.01 µM) was 38.6%, the viability, T/C (second compound 1 µM, first compound 0.0316 µM) was 20.2% and the viability, T/C (second compound 1 µM, first compound 0.1 µM) was 16.2%. For the same molecule, the viability, T/C (second compound 3.16 µM, first compound 0.000316 µM) was 106%, the viability, T/C (second compound 3.16 µM, first compound 0.001 µM) was 78.2% and the viability, T/C (second compound 3.16 µM, first compound 0.00316 µM) was 99.8%. The viability, T/C (second compound 3.16 µM, first compound 0.01 µM) was 38.8%, the viability, T/C (second compound 3.16 µM, first compound 0.0316 µM) was 20.5% and the viability, T/C (second compound 3.16 µM, first compound 0.1 µM) was 18.4%. The viability, T/C (second compound 10 µM, first compound 0.000316 µM) was 97.6%, the viability, T/C (second compound 10 µM, first compound 0.001 µM) was 87.6% and the viability, T/C (second compound 10 µM, first compound 0.00316 µM) was 69.3%. For the same molecule, the viability, T/C (second compound 10 µM, first compound 0.01 µM) was 34%, the viability, T/C (second compound 10 µM, first compound 0.0316 µM) was 20.6% and the viability, T/C (second compound 10 µM, first compound 0.1 µM) was 19.1%.
